Reference: ChEMBL document CHEMBL1201862, “PubChem BioAssay data set” (2004)
The source made the active and inactive calls.

Legend:
[1] = target: T1, Aspartyl aminopeptidase (Plasmodium falciparum 3D7, UniProt Q8I2J3); experiment: Counterscreen for inhibitors of M1 and M17 aminopeptidases: QFRET-based biochemical high throughput dose response assay for inhibitors of the Plasmodium falciparum M18 Aspartyl Aminopeptidase (PFM18AAP). [Related PubChem assays: 1619 (Screening assay (M17LAP inhibitors).), 1445 (Screening assay (M1AAP inhibitors).)]
T1 sequence (Q8I2J3 whole entry): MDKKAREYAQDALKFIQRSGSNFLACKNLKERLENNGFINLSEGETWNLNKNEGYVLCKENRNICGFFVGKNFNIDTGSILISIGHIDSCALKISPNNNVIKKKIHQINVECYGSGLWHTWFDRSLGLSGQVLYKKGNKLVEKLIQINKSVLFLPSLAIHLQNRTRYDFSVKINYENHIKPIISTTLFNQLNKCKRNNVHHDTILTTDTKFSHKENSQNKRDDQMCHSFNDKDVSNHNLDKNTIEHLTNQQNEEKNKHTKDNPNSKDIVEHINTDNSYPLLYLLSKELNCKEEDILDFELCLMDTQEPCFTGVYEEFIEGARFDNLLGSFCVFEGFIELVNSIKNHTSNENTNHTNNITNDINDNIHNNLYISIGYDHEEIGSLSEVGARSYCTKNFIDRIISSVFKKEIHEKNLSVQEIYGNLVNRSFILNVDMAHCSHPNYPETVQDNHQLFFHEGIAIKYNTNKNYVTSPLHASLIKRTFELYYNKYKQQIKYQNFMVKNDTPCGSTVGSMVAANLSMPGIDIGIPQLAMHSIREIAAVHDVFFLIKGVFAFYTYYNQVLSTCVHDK

[2] = target: T2, Aminopeptidase N (Plasmodium falciparum FcB1/Columbia, UniProt O96935); experiment: malaria alanyl aminopeptidase activity blockers – biochemical, fluorogenic H-Leu-NHMec substrate, 1536-well (AID 1445); parameters: species or system Plasmodium falciparum 3D7, 3D7
T2 sequence (O96935 whole entry): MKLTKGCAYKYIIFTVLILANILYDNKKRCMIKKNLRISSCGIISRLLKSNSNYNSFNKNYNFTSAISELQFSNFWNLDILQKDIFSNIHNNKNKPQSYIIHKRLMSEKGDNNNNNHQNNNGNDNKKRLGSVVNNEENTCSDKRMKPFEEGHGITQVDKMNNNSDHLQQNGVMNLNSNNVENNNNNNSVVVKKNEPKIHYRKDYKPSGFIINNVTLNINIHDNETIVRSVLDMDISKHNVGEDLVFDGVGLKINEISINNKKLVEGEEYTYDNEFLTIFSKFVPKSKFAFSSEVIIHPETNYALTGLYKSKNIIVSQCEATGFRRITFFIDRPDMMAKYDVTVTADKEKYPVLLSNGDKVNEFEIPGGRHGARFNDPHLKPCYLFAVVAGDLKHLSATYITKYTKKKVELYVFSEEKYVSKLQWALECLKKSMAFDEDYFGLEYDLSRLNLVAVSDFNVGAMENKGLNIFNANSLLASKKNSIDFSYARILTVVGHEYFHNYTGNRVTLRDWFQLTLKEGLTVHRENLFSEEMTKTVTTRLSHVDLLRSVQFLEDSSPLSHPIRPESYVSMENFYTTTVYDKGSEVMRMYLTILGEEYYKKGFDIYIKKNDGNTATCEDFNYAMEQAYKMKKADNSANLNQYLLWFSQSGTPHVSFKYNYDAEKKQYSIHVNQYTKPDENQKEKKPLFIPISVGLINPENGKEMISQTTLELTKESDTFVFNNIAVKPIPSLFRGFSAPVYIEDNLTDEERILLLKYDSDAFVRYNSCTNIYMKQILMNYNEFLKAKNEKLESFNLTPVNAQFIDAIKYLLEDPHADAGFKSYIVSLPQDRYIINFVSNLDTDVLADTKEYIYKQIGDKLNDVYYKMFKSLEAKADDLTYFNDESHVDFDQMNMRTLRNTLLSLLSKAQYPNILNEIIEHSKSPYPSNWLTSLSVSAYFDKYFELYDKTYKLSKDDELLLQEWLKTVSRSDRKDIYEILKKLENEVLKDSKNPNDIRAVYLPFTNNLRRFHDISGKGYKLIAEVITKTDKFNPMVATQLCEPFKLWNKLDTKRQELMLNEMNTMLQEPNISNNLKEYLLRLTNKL

[3] = target: Procathepsin L (Homo sapiens, UniProt P07711); experiment: CTSL1 protease inhibition – biochemical, QFRET, 1536-well, counter-screen for M1/M17 aminopeptidase inhibitor project, dose response (AID 2214)
Sequence of Procathepsin L (P07711 whole entry): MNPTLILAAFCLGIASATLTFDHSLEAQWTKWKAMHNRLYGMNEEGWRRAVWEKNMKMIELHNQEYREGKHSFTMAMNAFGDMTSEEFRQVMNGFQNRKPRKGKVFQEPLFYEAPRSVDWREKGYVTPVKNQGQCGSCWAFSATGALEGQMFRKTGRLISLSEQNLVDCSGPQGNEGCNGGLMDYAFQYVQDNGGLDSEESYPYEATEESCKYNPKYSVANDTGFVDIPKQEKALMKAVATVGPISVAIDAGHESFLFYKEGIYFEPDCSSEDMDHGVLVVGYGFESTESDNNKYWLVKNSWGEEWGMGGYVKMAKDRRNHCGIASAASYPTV

[4] = target: T3, Short transient receptor potential channel 4 (Mus musculus, UniProt Q9QUQ5); experiment: block of DAMGO-driven TRPC4 calcium entry – cell-based, HEK293 TRPC4/mu-opioid, Fluo-4 calcium, dose response (AID 434942); format: functional;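 note: potency of inhibitors blocking the TRPC4 calcium response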
T3 sequence (Q9QUQ5 whole entry): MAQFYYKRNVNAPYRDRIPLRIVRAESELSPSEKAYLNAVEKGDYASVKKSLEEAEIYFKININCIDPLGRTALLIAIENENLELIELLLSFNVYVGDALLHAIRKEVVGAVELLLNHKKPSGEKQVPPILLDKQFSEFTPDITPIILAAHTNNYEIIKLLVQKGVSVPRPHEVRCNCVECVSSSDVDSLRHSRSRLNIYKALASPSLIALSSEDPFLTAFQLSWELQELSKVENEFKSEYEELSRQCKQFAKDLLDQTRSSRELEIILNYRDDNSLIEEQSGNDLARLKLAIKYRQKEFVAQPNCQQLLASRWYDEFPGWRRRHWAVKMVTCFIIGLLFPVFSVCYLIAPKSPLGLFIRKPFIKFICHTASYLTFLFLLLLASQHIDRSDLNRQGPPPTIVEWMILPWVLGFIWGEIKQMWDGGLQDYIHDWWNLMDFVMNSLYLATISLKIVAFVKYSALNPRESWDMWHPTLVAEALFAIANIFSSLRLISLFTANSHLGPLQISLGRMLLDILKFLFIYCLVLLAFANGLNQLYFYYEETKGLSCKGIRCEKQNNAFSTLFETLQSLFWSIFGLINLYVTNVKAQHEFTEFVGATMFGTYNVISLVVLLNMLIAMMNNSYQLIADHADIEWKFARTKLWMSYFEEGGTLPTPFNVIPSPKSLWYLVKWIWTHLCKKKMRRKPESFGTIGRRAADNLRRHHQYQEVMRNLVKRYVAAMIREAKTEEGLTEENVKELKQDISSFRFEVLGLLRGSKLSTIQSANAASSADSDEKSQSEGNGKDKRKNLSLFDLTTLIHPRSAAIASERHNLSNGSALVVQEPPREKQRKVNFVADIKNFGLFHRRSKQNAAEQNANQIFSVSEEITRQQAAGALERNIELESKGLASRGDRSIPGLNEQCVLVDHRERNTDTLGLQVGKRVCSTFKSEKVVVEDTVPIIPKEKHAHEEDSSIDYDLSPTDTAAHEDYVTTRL

[5] = blockers of HIV-1 envelope-mediated cell-cell fusion – cherry-pick, dose response (AID 652057); format: functional, cell-based
[6] = blockers of HIV-1 ZM109 envelope-driven cell-cell fusion – HeLa effector, CEM target cells, luciferase, cherry-pick, dose response (AID 652058); format: functional, cell-based;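 note: luciferase signal from HIV-1 Env mediated cell-cell fusion of effector and target cells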
[7] = off-target signal loss in HeLa-CEM21 co-culture – HeLa F-luc CTL cells, cherry-picked, counter-screen for HIV-1 Env fusion inhibitor project, dose response (AID 652040); format: functional, cell-based;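 note: potency for signal decrease marking cytotoxic or nonspecific inhibition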
[8] = HIV-1 AD8 envelope cell-cell fusion blockers – cherry-pick, dose response (AID 652062); format: functional, cell-based;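 note: luciferase signal from cell-cell fusion driven by HIV-1 clade B AD8 Env; potency is for inhibitors of fusion seen as a drop in luminescence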
[9] = target: T4, X-box-binding protein 1 (Homo sapiens, UniProt P17861); format: functional, Cricetulus griseus;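 note: confirmatory dose-response counter-screen serving a CHOP assay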
T4 sequence (P17861 whole entry): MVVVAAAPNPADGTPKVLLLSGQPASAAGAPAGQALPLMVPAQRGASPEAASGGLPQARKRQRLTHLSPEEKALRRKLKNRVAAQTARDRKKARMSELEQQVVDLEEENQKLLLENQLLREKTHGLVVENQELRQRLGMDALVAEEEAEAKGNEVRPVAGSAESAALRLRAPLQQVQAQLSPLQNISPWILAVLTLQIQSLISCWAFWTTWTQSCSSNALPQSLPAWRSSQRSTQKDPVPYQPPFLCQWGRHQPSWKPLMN

[10] = Luminescence Cell-Based Dose Confirmation HTS to Identify Activators of 5'UTR Stem-Loop Driven Alpha-Synuclein mRNA Translation in H4 Neuroglioblastoma Cells. [Related pubchem assays: 1829 (Project Summary), 1814 (Primary HTS)]; format: functional
[11] = Luminescence Cell-Based Dose Response HTS to Identify Activators of Luciferase Translation or Activity in H4 […] Cells. [Related pubchem assays: 1829 (Project Summary), 1814 (Primary HTS)]; format: functional
[12] = tested on: H4; experiment: Luminescence Cell-Based Dose Response HTS to Identify Activators of 5'UTR Stem-Loop Driven Prion Protein mRNA Translation in H4 Neuroglioblastoma Cells. [Related pubchem assays: 1829 (Project Summary), 1814 (Primary HTS)]; format: functional; settings: Homo sapiens
[13] = target: T5, DNA repair and recombination protein RAD54-like (Homo sapiens, UniProt Q92698); experiment: RAD54 Holliday junction migration blockers – biochemical, fluorescence, cherry-picked samples, dose series, confirmation (AID 651657); format: functional
T5 sequence (Q92698 whole entry): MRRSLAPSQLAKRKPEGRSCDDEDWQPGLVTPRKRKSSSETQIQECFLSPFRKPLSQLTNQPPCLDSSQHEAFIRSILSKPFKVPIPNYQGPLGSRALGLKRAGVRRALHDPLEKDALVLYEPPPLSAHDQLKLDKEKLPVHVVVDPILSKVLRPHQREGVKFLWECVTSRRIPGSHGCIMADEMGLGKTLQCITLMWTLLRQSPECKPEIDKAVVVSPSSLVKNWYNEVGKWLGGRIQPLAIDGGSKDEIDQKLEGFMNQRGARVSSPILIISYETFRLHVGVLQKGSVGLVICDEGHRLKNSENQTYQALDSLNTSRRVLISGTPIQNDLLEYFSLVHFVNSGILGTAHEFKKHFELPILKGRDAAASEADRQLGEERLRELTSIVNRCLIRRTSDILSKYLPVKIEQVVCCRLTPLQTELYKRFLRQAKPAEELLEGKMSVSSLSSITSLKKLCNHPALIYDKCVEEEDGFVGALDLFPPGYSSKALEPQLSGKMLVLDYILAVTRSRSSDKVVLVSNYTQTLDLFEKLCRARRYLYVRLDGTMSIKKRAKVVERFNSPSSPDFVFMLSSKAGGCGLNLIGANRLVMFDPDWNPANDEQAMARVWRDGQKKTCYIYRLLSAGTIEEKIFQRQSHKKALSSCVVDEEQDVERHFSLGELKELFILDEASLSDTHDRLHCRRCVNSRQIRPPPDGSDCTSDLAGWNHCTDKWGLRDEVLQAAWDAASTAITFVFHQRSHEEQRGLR

[14] = tested on: Vero; experiment: mammalian cell viability reduction – secondary assay, cytotoxicity control for West Nile virus antiviral project, dose response (AID 1650); format: functional; settings: Chlorocebus sabaeus
[15] = intracellular Trypanosoma cruzi inhibitors in host cells – cell-based, plate reader, cherry-pick samples, set 3, dose response (AID 651818); format: functional;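 note: compounds incubated with infected cells for about four days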
[16] = tested on: H9c2; experiment: cells; format: functional, cell-based; settings: Rattus norvegicus, H9c2, Myocardium;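 note: confirmatory concentration-response retest of ultra-high-throughput screening hits for modulation of myocardial damage; cell death induced by hydrogen peroxide oxidative stress; compound pretreatment for 60 min then peroxide exposure for 2 h; potency is for protecting the cells against peroxide damage rather than for killing them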
[17] = target: T6, DNA repair protein RAD52 homolog (Homo sapiens, UniProt P43351); format: functional, biochemical
T6 sequence (P43351 whole entry): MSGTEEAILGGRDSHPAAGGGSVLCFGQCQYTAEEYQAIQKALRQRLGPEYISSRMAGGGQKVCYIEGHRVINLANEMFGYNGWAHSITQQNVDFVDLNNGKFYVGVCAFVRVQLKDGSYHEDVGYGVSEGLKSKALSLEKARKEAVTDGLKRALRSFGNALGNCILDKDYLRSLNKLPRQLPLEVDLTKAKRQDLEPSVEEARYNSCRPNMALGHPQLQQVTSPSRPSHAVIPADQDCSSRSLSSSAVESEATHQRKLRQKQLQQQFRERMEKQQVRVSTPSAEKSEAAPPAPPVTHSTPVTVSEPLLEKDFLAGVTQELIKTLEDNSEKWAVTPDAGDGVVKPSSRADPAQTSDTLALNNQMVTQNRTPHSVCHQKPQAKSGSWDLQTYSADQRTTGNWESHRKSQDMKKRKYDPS

In the case of `O=C(Nn1c(Cc2cccs2)nc2ccccc2c1=O)c1cccs1`, the IC50 [1] is reported as > 73.5 µM (not active), the IC50 [2] is reported as 11.9 µM (active) and the IC50 [3] is reported as > 59.6 µM (not active).
For `O=C(Nc1ccccc1N1CCN(C(=O)c2ccccc2)CC1)c1ccc(Br)o1`, the EC50 [4] was 0.596 µM (active), the AC50 [5] was 10.2 µM (active) and the AC50 [6] was 12.1 µM (active). For the same molecule, the AC50 [7] was 15.2 µM (active) and the AC50 [8] was 11 µM (active).
With `Oc1ccc(Br)cc1-c1nc2cnccn2c1NC1CCCCC1` the “Absolute IC50 (XBP1)” value [9] was 10 µM.
For `Clc1ccc(COc2ccccc2CNCc2cccnc2)cc1`, the EC50 [4] was 2.99 µM (active).
In the case of `CC1CCc2sc3nc(N4CCN(CCO)CC4)n4ncnc4c3c2C1` (stereo not drawn), the EC50 [10] is reported as 24.7 µM (active), the EC50 [11] is reported as 8.04 µM (active) and the EC50 [12] is reported as 34.7 µM (active). The AC50 [13] was 34.7 µM (active).
For `CCC(=O)N1N=C(c2c(O)nc3ccc(Cl)cc3c2-c2ccccc2)CC1c1ccco1` (stereo not drawn), the CC50 [14] was 73.3 µM (active) and the “Absolute IC50 (XBP1)” value [9] was 10 µM.
In the case of `CCCNCc1cc(Br)ccc1OCC(=O)NCCc1ccccc1`, the EC50 [4] is reported as 0.841 µM (active).
For `CCC(C)NCCOCCOc1ccccc1-c1ccccc1` (stereo not drawn), the EC50 [4] was 1.19 µM (active).
With `C[C@@H]1CN([C@H](C)CO)C(=O)c2cccc(NC(=O)C3CCCCC3)c2O[C@H]1CN(C)Cc1ccc(Cl)c(Cl)c1` the AC50 [15] was 3.93 µM (active).
For `C[C@H]1CN([C@@H](C)CO)C(=O)c2cc(NS(=O)(=O)c3ccc(F)cc3)ccc2O[C@@H]1CN(C)Cc1ccc(Oc2ccccc2)cc1`, the AC50 [15] was 3.72 µM (active).
For `COc1cc2nc(Nc3ccc(F)cc3)nc(N)c2cc1OC`, the IC50 [16] was > 79 µM (inactive), the AC50 [13] was 49.9 µM (active) and the AC50 [17] was 7.26 µM (active).
